{"source": "paper PMC8298375", "about": "(Naunyn-Schmiedeberg's Archives of Pharmacology, 2021)", "key": {"[1]": {"set-up": "method as in Jann [2000]", "settings": "ref Jann [2000], cited from earlier work"}, "[2]": {"set-up": "method as in Jann [2000]", "settings": "ref Jann [2000]; cited from earlier work"}, "[3]": {"assay": "In vitro release studies, release kinetics and mechanism (dialysis sac)", "assay_type": "physicochemical", "settings": "PBS pH 7.4, dialysis sac", "method": "In vitro release studies were performed using dialysis sac (Sigma membrane, MW cut-off 13 kDa) method. Two milligram equivalent of rivastigmine-loaded nanoparticles were weighed and suspended in 2 mL of phosphate buffer saline (pH 7.4). Samples were withdrawn at predetermined time intervals and analyzed by HPLC method. In order to maintain sink conditions, an equal volume of PBS was replaced. The whole experiment was performed at […]. Based on the cumulative drug release vs. time profiles, the release kinetics models and mechanism were proposed (Akbuǧa and Bergişadi [1997])."}, "cholinesterase enzyme": {"test_system": "cholinesterase enzyme", "set-up": "method as in Emerich and Walsh [1990]", "settings": "2.5 mg/kg via the oral route; ref Emerich and Walsh [1990]; cited from earlier work"}, "[4]": {"set-up": "method as in Arumugam [2009]", "settings": "male vs female rats; ref Arumugam [2009]; cited from earlier work"}, "AChE": {"test_system": "AChE", "assay_type": "in vivo, rat", "settings": "scopolamine model, listed as pure drug", "method": "Samples were then centrifuged at 10,000 rpm for 5 min, and plasma was stored at − 70 °C until analysis.\nThiocholine, which was produced due to the hydrolysis of acetylthiocholine (ACTI) by AChE, was estimated by making it react with 5, 5′-dithiobis-(2-nitrobenzoic acid) (DTNB). The chemical, 5-thio-2-nitrobenzoic acid (yellow color complex), which was released due to reaction was estimated using a UV spectrophotometer in the range of 400 to 420 nm with maximal absorption at 412 nm. One hundred microliter of blank rat plasma was taken in the polypropylene vials. To this, 2.8 mL of phosphate buffer (0.01 M, pH 8) and 100 µL of DTNB reagents were added and mixed well. Then, 20 µL of ACTI (26.01 mg/mL of Milli-Q water) was added to the contents of the cuvette to initiate the enzyme reaction. The reaction kinetics was monitored at different time intervals (0, 1, 2, 3, 4 min), and absorbance was noted. 2.8 mL buffer (0.01 M, pH 8.0) and 100 µL DTNB reagent served as blank. Concentrations in the range of 0.03–30 mM were prepared using methanol as a diluent. […] Substrate concentration and reaction time were optimized such that sufficient concentration of ACTI is available to bind with the enzyme to initiate the reaction and also it should not saturate the enzyme. In this study, varying concentrations (100–1000 µM) of ACTI were prepared, and reaction kinetics were observed. In general, the maximum time should be either 2–4 min or even less, because the enzyme might undergo degradation. In the present study, up to 4 min of reaction kinetics (changing the optical density or absorbance) was measured. One unit of AChE activity is defined as the number of µmol of acetylthiocholine iodide hydrolyzed per minute. The specific activity of AChE is expressed in moles/min/mg of protein (Kaur et al. [2015]): AChEActivity=(abs.permin×1000×volumeofenzyme)/(13600×TRM)AChEActivity=abovevalue×1000(nanomolar/min/mL)\nwhere 13,600 = molar extinction coefficient of DTNB: 1000-molar conversion factor: (TRM) total reaction mixture 3 mL: volume of enzyme (0.1 mL)."}}, "note": "Where a name gives a salt, the structure may show the parent alone."}
{"smiles": "CCN(C)C(=O)Oc1cccc([C@H](C)N(C)C)c1", "note": "[Rivastigmine, Rivastigmine hydrogen tartrate]", "values": [{"measurement": "bioavailability", "setting": "[1]; oral", "value": "36–40%"}, {"measurement": "plasma elimination half-life", "setting": "[1]", "value": 1.5, "unit": "h"}, {"measurement": "log P predicted", "setting": "[2]", "value": 2.45}, {"measurement": "drug released within 2 h", "setting": "[3]", "value": 85, "unit": "%"}, {"measurement": "inhibition of the cholinesterase enzyme in the cortex and hippocampus", "setting": "cholinesterase enzyme", "value": "20–30%"}, {"measurement": "elimination rate constant, male rats versus female rats", "setting": "[4]", "value": 2.5, "unit": "fold"}, {"measurement": "peak AChE inhibition (Emax, maximum inhibition) in plasma", "setting": "AChE", "value": 71.95, "unit": "%"}]}
